Target: T1, Gastrin/cholecystokinin type B receptor (Mus musculus, UniProt P56481)
T1 sequence (P56481 whole entry): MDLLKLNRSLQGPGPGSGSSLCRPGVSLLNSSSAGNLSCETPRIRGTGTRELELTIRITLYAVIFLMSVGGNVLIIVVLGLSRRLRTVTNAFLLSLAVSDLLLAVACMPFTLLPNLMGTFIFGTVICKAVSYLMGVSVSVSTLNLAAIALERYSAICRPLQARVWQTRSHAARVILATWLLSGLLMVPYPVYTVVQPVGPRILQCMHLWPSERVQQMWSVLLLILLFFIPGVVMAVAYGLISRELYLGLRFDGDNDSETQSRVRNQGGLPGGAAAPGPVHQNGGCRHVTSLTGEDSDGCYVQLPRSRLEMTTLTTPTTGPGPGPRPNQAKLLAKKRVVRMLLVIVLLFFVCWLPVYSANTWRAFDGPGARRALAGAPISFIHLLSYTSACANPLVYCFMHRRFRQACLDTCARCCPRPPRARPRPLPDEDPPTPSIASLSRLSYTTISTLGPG
Test: In vitro binding affinity against Cholecystokinin type B receptor in mouse cerebral cortical membranes using [125I]Tyr(SO3H)27]-CCK-8 binding assay
Format: cell membranes

IC50 [µM]	Structure (SMILES)
11	O=C(O)CCCNS(=O)(=O)c1ccc(N/N=C(/S)NCCc2c[nH]c3ccccc23)c([N+](=O)[O-])c1
24	O=C(O)c1ccc(NC(=S)NNc2ccc(S(=O)(=O)NCCc3c[nH]c4ccccc34)cc2[N+](=O)[O-])cc1
46	O=C(O)CNS(=O)(=O)c1ccc(NNC(=S)NCCc2c[nH]c3ccccc23)c([N+](=O)[O-])c1
4.5	O=C(O)c1ccccc1NS(=O)(=O)c1ccc(N/N=C(/S)NCCc2c[nH]c3ccccc23)c([N+](=O)[O-])c1
10	O=C(O)c1ccc(NS(=O)(=O)c2ccc(N/N=C(/S)NCCc3c[nH]c4ccccc34)c([N+](=O)[O-])c2)cc1
3.6	O=C(O)c1cccc(NS(=O)(=O)c2ccc(NNC(=S)NCCc3c[nH]c4ccccc34)c([N+](=O)[O-])c2)c1
4	O=C(O)c1cccc(N(Cc2ccccc2)S(=O)(=O)c2ccc(NNC(=S)NCCc3c[nH]c4ccccc34)c([N+](=O)[O-])c2)c1
1.9	O=C(O)CN(Cc1ccccc1)S(=O)(=O)c1ccc(N/N=C(/S)NC(c2ccccc2)c2ccccc2)c([N+](=O)[O-])c1
6	O=C(O)CN(CCc1ccccc1)S(=O)(=O)c1ccc(N/N=C(/S)NCCc2c[nH]c3ccccc23)c([N+](=O)[O-])c1
1.8	O=C(O)CN(Cc1ccccc1)S(=O)(=O)c1ccc(NNC(=S)NCCc2c[nH]c3ccccc23)c([N+](=O)[O-])c1
0.51	O=C(O)CCN(Cc1ccccc1)S(=O)(=O)c1ccc(NNC(=S)NCCc2c[nH]c3ccccc23)c([N+](=O)[O-])c1
24	O=C(O)CCNS(=O)(=O)c1ccc(N/N=C(/S)NCCc2c[nH]c3ccccc23)c([N+](=O)[O-])c1
6	O=C(O)CN(CCCc1ccccc1)S(=O)(=O)c1ccc(N/N=C(/S)NCCc2c[nH]c3ccccc23)c([N+](=O)[O-])c1
2.43	O=C(O)CCCN(Cc1ccccc1)S(=O)(=O)c1ccc(N/N=C(/S)NCCc2c[nH]c3ccccc23)c([N+](=O)[O-])c1
31	O=C(O)c1cccc(NC(=S)NNc2ccc(S(=O)(=O)NCCc3c[nH]c4ccccc34)cc2[N+](=O)[O-])c1

Target: Substance-P receptor (Rattus norvegicus, UniProt P14600)
Sequence (P14600 whole entry): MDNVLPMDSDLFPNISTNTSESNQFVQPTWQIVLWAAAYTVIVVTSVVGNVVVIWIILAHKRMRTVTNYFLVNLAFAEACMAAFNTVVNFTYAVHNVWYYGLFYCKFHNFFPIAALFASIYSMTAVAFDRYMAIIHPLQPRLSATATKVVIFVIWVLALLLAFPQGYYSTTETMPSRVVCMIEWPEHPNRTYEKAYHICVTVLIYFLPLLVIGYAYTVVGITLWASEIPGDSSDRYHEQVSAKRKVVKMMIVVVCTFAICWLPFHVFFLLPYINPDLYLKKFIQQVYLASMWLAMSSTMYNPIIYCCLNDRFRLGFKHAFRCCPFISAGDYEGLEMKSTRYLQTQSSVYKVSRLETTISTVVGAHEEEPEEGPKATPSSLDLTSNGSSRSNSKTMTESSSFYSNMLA
Test: In vitro binding affinity against Tachykinin receptor 1 in rat whole forebrain membranes using [3H][Sar9Met(O2)]-SP binding assay
Format: cell membranes, Membrane

IC50 [µM]	Structure (SMILES)
> 100	CSCCNS(=O)(=O)c1ccc(N/N=C(\S)N2CCC[C@@H]2C(=O)NCc2ccccc2)c([N+](=O)[O-])c1
> 100	CSCCNS(=O)(=O)c1ccc(N/N=C(\S)N2CCC[C@H]2C(=O)NCc2ccccc2)c([N+](=O)[O-])c1
> 100	O=C(NC(c1ccccc1)c1ccccc1)[C@H]1CCCN1/C(S)=N/Nc1ccccc1[N+](=O)[O-]
> 100	O=C(NC(c1ccccc1)c1ccccc1)[C@@H]1CCCN1/C(S)=N/Nc1ccccc1[N+](=O)[O-]

Target: Substance-P receptor (Cavia porcellus, UniProt P30547)
Sequence (P30547 whole entry): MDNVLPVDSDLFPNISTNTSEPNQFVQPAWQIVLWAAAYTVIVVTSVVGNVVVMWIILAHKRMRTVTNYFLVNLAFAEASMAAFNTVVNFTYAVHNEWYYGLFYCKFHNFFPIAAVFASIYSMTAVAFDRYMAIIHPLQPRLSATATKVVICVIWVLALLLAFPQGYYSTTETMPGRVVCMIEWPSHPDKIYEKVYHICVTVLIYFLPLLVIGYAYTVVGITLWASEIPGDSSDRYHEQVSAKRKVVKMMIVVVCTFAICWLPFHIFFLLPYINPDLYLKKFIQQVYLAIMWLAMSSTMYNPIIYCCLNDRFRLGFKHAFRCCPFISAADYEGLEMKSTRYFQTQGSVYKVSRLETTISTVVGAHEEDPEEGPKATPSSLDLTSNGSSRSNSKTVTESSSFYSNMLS
Test: In vitro binding affinity against Tachykinin receptor 1 in guinea pig ileum using organ bath assay
Format: tissue-based

IC50 [µM]	Structure (SMILES)
0.98	CSCCNS(=O)(=O)c1ccc(N/N=C(\S)N2CCC[C@H]2C(=O)NC(c2ccccc2)c2ccccc2)c([N+](=O)[O-])c1
2.31	O=C(NC(c1ccccc1)c1ccccc1)[C@H]1CCCN1/C(S)=N/Nc1ccccc1[N+](=O)[O-]
7.93	CSCCNS(=O)(=O)c1ccc(N/N=C(\S)N2CCC[C@@H]2C(=O)NC(c2ccccc2)c2ccccc2)c([N+](=O)[O-])c1
1.67	O=C(NC(c1ccccc1)c1ccccc1)[C@@H]1CCCN1/C(S)=N/Nc1ccccc1[N+](=O)[O-]
0.0029	COc1ccccc1CN[C@H]1CCCN[C@H]1c1ccccc1 [CP-99994]

Target: T2, B2 bradykinin receptor (Rattus norvegicus, UniProt P25023)
T2 sequence (P25023 whole entry): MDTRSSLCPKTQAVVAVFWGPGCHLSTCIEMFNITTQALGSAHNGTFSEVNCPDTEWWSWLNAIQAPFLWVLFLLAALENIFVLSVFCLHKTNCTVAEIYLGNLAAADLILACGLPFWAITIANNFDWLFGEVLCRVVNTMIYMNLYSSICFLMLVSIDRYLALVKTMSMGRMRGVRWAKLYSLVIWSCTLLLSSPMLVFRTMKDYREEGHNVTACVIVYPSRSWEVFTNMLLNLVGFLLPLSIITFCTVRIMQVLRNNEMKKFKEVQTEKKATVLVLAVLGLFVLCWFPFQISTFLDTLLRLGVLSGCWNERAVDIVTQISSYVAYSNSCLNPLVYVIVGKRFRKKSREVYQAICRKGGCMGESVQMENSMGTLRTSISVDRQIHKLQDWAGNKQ
Test: In vitro binding affinity against Bradykinin receptor B2 in rat NG 108-15 neuroblastoma-glioma hybrid cell membranes using [3H]BK binding assay

IC50 [µM]	Structure (SMILES)
> 100	CSCCNS(=O)(=O)c1ccc(N/N=C(\S)N2CCC[C@@H]2C(=O)NCc2ccccc2)c([N+](=O)[O-])c1
> 100	O=C(O)CCCNS(=O)(=O)c1ccc(N/N=C(/S)NCCc2c[nH]c3ccccc23)c([N+](=O)[O-])c1
> 100	O=C(O)c1ccc(NC(=S)NNc2ccc(S(=O)(=O)NCCc3c[nH]c4ccccc34)cc2[N+](=O)[O-])cc1
> 100	O=C(O)CNS(=O)(=O)c1ccc(NNC(=S)NCCc2c[nH]c3ccccc23)c([N+](=O)[O-])c1
> 100	O=C(O)c1ccccc1NS(=O)(=O)c1ccc(N/N=C(/S)NCCc2c[nH]c3ccccc23)c([N+](=O)[O-])c1
> 100	O=C(O)c1ccc(NS(=O)(=O)c2ccc(N/N=C(/S)NCCc3c[nH]c4ccccc34)c([N+](=O)[O-])c2)cc1
> 100	O=C(O)c1cccc(NS(=O)(=O)c2ccc(NNC(=S)NCCc3c[nH]c4ccccc34)c([N+](=O)[O-])c2)c1
> 100	CSCCNS(=O)(=O)c1ccc(N/N=C(\S)N2CCC[C@H]2C(=O)NCc2ccccc2)c([N+](=O)[O-])c1
> 100	O=C(O)c1cccc(N(Cc2ccccc2)S(=O)(=O)c2ccc(NNC(=S)NCCc3c[nH]c4ccccc34)c([N+](=O)[O-])c2)c1
0.41	O=C(O)CN(Cc1ccccc1)S(=O)(=O)c1ccc(N/N=C(/S)NC(c2ccccc2)c2ccccc2)c([N+](=O)[O-])c1
> 100	CSCCNS(=O)(=O)c1ccc(N/N=C(\S)N2CCC[C@H]2C(=O)NC(c2ccccc2)c2ccccc2)c([N+](=O)[O-])c1
> 100	O=C(O)CN(CCc1ccccc1)S(=O)(=O)c1ccc(N/N=C(/S)NCCc2c[nH]c3ccccc23)c([N+](=O)[O-])c1
> 100	O=C(O)CN(Cc1ccccc1)S(=O)(=O)c1ccc(NNC(=S)NCCc2c[nH]c3ccccc23)c([N+](=O)[O-])c1
> 100	O=C(NC(c1ccccc1)c1ccccc1)[C@H]1CCCN1/C(S)=N/Nc1ccccc1[N+](=O)[O-]
> 100	O=C(O)CCN(Cc1ccccc1)S(=O)(=O)c1ccc(NNC(=S)NCCc2c[nH]c3ccccc23)c([N+](=O)[O-])c1
> 100	O=C(O)CCNS(=O)(=O)c1ccc(N/N=C(/S)NCCc2c[nH]c3ccccc23)c([N+](=O)[O-])c1
> 100	CSCCNS(=O)(=O)c1ccc(N/N=C(\S)N2CCC[C@@H]2C(=O)NC(c2ccccc2)c2ccccc2)c([N+](=O)[O-])c1
> 100	O=C(O)CN(CCCc1ccccc1)S(=O)(=O)c1ccc(N/N=C(/S)NCCc2c[nH]c3ccccc23)c([N+](=O)[O-])c1
> 100	O=C(NC(c1ccccc1)c1ccccc1)[C@@H]1CCCN1/C(S)=N/Nc1ccccc1[N+](=O)[O-]
> 100	O=C(O)CCCN(Cc1ccccc1)S(=O)(=O)c1ccc(N/N=C(/S)NCCc2c[nH]c3ccccc23)c([N+](=O)[O-])c1
> 100	O=C(O)c1cccc(NC(=S)NNc2ccc(S(=O)(=O)NCCc3c[nH]c4ccccc34)cc2[N+](=O)[O-])c1
